Laboratory results from patent US7129073B2, “Regulation of neuronal function through metabotropic glutamate receptor signaling pathways” (The Rockefeller University, priority 2001, dated 2006).
“Also recorded” adds a separate entry of the source.

Assays:
[1] = test system: Cdk5; assay: Cdk5 kinase activity immunoprecipitated from neostriatal slices, histone H-1 as substrate; assay type: cell-based, mouse; conditions: for effect of pretreatment on the effect of DHPG on Cdk5 kinase activity: CKI-7 dose-dependent, U73122 10 μM, BAPTA/AM 20 μM, cyclosporin A 5 μM
Protocol: (§1) Neostriatal slices were prepared from male C57/BL6 mice (6–8 weeks old) in accordance with methods known in the art (Nishi, A. et al. 1997, J. Neurosci. 17:8147–8155). Slices were treated with a drug. After drug treatment, slices were immediately frozen in liquid nitrogen, and stored at −80° C. until assayed.
For Cdk5 immunoprecipitation, striatal tissue slices (approximately 150 μg total protein) were lysed using a Dounce homogenizer and 1 ml of lysis buffer (150 mM NaCl, 20 mM Tris-HCl (pH 7.4), 1 mM EDTA, 0.5% NP-40, 5 mM NaF, 5 mM Na3PO4 and protease inhibitors). Lysates were centrifuged at 10,000 g for 10 minutes at 4° C. Supernatants were pre-cleared by adding rabbit IgG-conjugated agarose for 40 minutes at 4° C. Ten μl of Cdk5 antibody conjugated to agarose were added and samples were incubated for 1 hour at 4° C. with mixing. Agarose pellets were collected and washed three times with 1 ml of lysis buffer and two times with kinase assay buffer (50 mM Hepes (pH 7.5), 10 mM MgCl2, 1 mM DTT). Cdk5 kinase assays were performed in a 30-μl reaction mixtures with 2 μg Histone H-1, 500 μM ATP and 5 μCi of γ-^32P-ATP. Samples were incubated at 30° C. for 10 minutes, reactions were stopped by addition of SDS-sample buffer, and samples were boiled for 5 minutes. Samples were separated by SDS-PAGE and analyzed as disclosed above for CKI assays. Data were analyzed by Student's t-test in Microsoft Excel software as indicated, with significance defined as p<0.05.
(§2) CK1 assays were performed in a 30 μl assay volume with 2 μg of purified DARPP-32, 500 μM ATP and 5 μCi γ-^32P-ATP. Reactions were started by addition of the ATP. Samples were incubated at 30° C. for 10 min and reactions were stopped by addition of SDS-sample buffer and boiled for 5 min. Samples were separated by SDS-PAGE (12% polyacrylamide). SDS-PAGE gels were dried and exposed to Kodak film for autoradiography. Results were quantified using a Molecular Dynamics PHOSPHORIMAGER™. Immunoprecipitation and assay of Cdk5 were performed as disclosed (20).

[2] = test system: HA-tagged CK1ε; assay: kinase activity of HA-CK1ε immunoprecipitated from transfected N2a cells, DARPP-32 as substrate; assay type: cell-based; conditions: 30 min before DHPG 100 μM 2 min, CKI-7 100 μM, L-AP3 100 μM, U73122 10 μM, BAPTA/AM 20 μM, cyclosporin A 1 μM
Protocol: Neuroblastoma N2a cells were cultured in DMEM containing 5% fetal bovine serum (FBS) to 50–60% confluency. Four micrograms of the expression plasmid for HA-CK1ε were transfected into N2a cells in 100 mm dishes using FuGENE™ 6. Twenty-four hours after transfection, cells were incubated in phosphate-buffered Krebs-Henseleit solution (Sigma) for 10 minutes at room temperature. Cells were then incubated with or without CKI inhibitor for 30 minutes before treating with the group I mGluR agonist (S)-3,5-DHPG (100 μM) for 2 minutes. Cells were then lysed in one ml of lysis buffer containing 1% Nonidet P-40 (NP-40), 150 mM NaCl, 0.1% SDS, 50 mM Tris (pH 8.0), 5 mM Na3VO4, 20 mM NaF, 20 mM β-glycerol-phosphate and protease inhibitors. Lysates were centrifuged at 10,000 g and supernatants were used for immunoprecipitation and kinase assay.
For immunoprecipitation of CKI from N2a cells, lysates (1 mg of total protein) were pre-cleared with 5 μl of mouse IgG and 50 μl of protein A agarose for 30 minutes. Five μl of anti-HA antibody were added and samples were incubated for 1 hour at 4° C. Five μl of anti-mouse rabbit IgG and 50 μl of protein A agarose were then added for 45 minutes. Immuno-complexes were washed three times in lysis buffer, two times in kinase buffer (30 mM Hepes (pH 7.5), 7 mM MgCl2, 0.5 mM DTT). CKI assays were performed in a 30 μl assay volume with 2 μg of purified DARPP-32, 500 μM ATP and 5 μCi γ-^32P-ATP. Samples were incubated at 30° C. for 20 minutes, reactions were stopped by addition of SDS-sample buffer, and samples were boiled for 5 minutes. Samples were separated by SDS-PAGE (12% polyacrylamide). SDS-PAGE gels were dried and exposed to Kodak film for autoradiography. Bands were quantified by analysis using a Molecular Dynamics PhosphorImager.
Neuroblastoma N2a cells were cultured to 50–60% confluence in DMEM containing 5% fetal bovine serum. Four μg of the expression plasmid for HA-CK1ε or myc-MM2-CK1ε was transfected into N2a cells in 100 mm dishes using FuGENE6™. Twenty-four hours after transfection, cells were incubated at room temperature in phosphate-buffered Kreb's-Henseleit solution (Sigma) for 10 min and then with or without inhibitors for 30 min before treating with (S)-3,5-DHPG, for 2 min. Cells were then lysed in 1 ml of radio-immunoprecipitation (RIPA) buffer containing 1% NP-40, 150 mM NaCl, 0.1% SDS, 50 mM Tris, pH 8.0, 5 mM Na3VO4, 20 mM NaF, 20 mM β-glycerol-phosphate and protease inhibitors. Lysates were centrifuged at 10,000 g, and supernatants were used for immunoprecipitation and kinase assay.
For immunoprecipitation of CK1ε from N2a cells, lysates (1 mg of total protein) were precleared with 5 μl of mouse IgG (ICN) and 50 μl of protein A agarose for 30 min. Five μl (approximately 2 μg) of anti-HA or anti-myc antibody was added and samples were incubated for 1 h at 4° C. Five μl of anti-mouse rabbit IgG and 50 μl of protein A agarose were then added for 45 min. Immuno-complexes were washed 3 times in lysis buffer and 2 times in kinase buffer (30 mM Hepes, pH 7.5, 7 mM MgCl2, 0.5 mM DTT).
as §2

[3] = test system: Thr75 of DARPP-32 (Cdk5 site); assay: DARPP-32 phospho-Thr75 immunoblot in neostriatal slices; assay type: cell-based, mouse; conditions: for effect on basal phosphorylation of Thr75 / effect of pretreatment on the DHPG effect on Thr75 phosphorylation: U73122 10 μM 30 min, BAPTA/AM 20 μM; for effect of pretreatment on the DHPG effect on Thr75 phosphorylation: before DHPG 100 μM 2 min, L-AP3 100 μM 20 min, ZM241385 100 μM, cyclosporin A 5 μM 1 h
Protocol: as §1
(§3) Frozen slices were sonicated in hot homogenization buffer containing 1% SDS and 50 mM NaF, and samples were boiled for 10 minutes. SDS-PAGE sample buffer was then added and samples were boiled for 5 minutes. Samples (approximately 120 μg of total protein) were separated by SDS-PAGE (10% polyacrylamide) and then transferred to nitrocellulose. In most studies, immunoblots were first probed with anti-phospho-Ser137 DARPP-32 antibody. The blots were then stripped and probed with anti-phospho-Thr75 DARPP-32 antibody. Blots were stripped again and probed with anti-total DARPP-32 antibody. […] Chemiluminescence was detected by autoradiography and bands were quantified by analysis of scanned images using NIH IMAGE 1.52 software. Data were statistically analyzed by Student's t test in Microsoft EXCEL™ software as indicated.
(§4) Neostriatal slices were prepared from male C57/BL6 mice (6–8 weeks old) as disclosed (22). Slices were treated with drugs as specified in the text and figure legends. After drug treatment, slices were immediately frozen in liquid nitrogen, and stored at −80° C. until assayed.
(§5) Frozen slices were sonicated in hot homogenization buffer containing 1% SDS and 50 mM NaF, and samples were boiled for 10 min. SDS-PAGE sample buffer was then added and samples were boiled for 5 min. Samples (approximately 120 μg protein) were separated by SDS-PAGE (10% polyacrylamide) and transferred to nitrocellulose. Immunoblots were first probed with antiphospho-Ser-137 DARPP-32 antibody. The blots were stripped and probed with anti-phosphoThr-75 DARPP-32 antibody. Blots were stripped again and probed with anti-total DARPP-32 antibody. Antibody binding was detected by enhanced chemiluminescence (ECL) using X-ray film, and images were analyzed by laser scanning densitometry using NIH Image 1.52 software. Data were statistically analyzed by Student's t-test using Microsoft EXCEL™ software as indicated.

[4] = test system: Ser137 of DARPP-32 (CK1 site); assay: DARPP-32 phospho-Ser137 immunoblot in neostriatal slices; assay type: cell-based, mouse; conditions: for effect on basal phosphorylation of Ser137 / effect of pretreatment on the DHPG effect on Ser137 phosphorylation: U73122 10 μM 30 min, BAPTA/AM 20 μM; for effect of pretreatment on the DHPG effect on Ser137 phosphorylation: before DHPG 100 μM 2 min, L-AP3 100 μM 20 min, ZM241385 100 μM, cyclosporin A 5 μM 1 h
Protocol: as §1, §3, §4, §5

[5] = test system: ER; conditions: read-out: IC50, competition with fluorescein-labeled estradiol for binding to ER; FP-based assay; cited from earlier work
[6] = test system: voltage-dependent Ca2+ channels; assay: whole-cell recordings of voltage-dependent Ca2+ channels in dissociated neostriatal neurons; assay type: cell-based, mouse; conditions: CK1–7 100 μM, butyrolactone 25 μM (FIG. 6)
Protocol: Neostriatal neurons from 3- to 4-week-old mice were acutely dissociated by using procedures similar to those disclosed in Eberwine et al. (1995, Prog. Brain Res. 105:117–126). Whole-cell current recordings used standard voltage-clamp techniques. The internal solution consisted of 180 mM N-methyl-D-glucamine, 40 mM Hepes, 4 mM MgCl2, 0.5 mM 1,2-bis(2-aminophenoxy)ethane-N,N,N′,N′-tetraacetate, 12 mM phosphocreatine, 2 mM Na2ATP, 0.2 mM Na3GTP, 0.1 mM leupeptin (pH 7.2–7.3), 265–270 mosm/liter. The external solution consisted of 135 mM NaCl, 20 mM CsCl, 1 mM MgCl2, 10 mM Hepes, 0.001 mM tetrodotoxin, 5 mM BaCl2, 10 mM glucose (pH 7.3), 300–305 mosm/liter. Recordings were obtained with an Axon Instruments 200B patch clamp amplifier that was controlled and monitored with an IBM PC running PCLAMP™ (v. 8) with a DigiData 1320 series interface (Axon Instruments, Foster City, Calif.). Electrode resistances were typically 2–4 MΩ in the bath. After seal rupture, series resistance (4–10 MΩ) was compensated (70–90%) and periodically monitored. Drugs were applied with a gravity-fed “sewer pipe” system. The array of application capillaries was positioned 250 μm from the cell under study. Solution changes were effected by altering the position of the array with a DC drive system controlled by a microprocessor-based controller (Newport-Klinger, Irvine, Calif.). Data analyses were performed with AXOGRAPH™ (Axon Instruments), […]™ (Albeck Software, Reading, Pa.), and […]™ (Abacus Concepts, Berkeley, Calif.).

[7] = slices treated with drug alone: DHPG 100 μM, ionomycin 2 μM
[8] = 1 μM butyrolactone, 30 min before DHPG 2 min
[9] = butyrolactone 5 μM and 10 μM, 30 min before DHPG 2 min

COc1ccc2c(c1)CC[C@@H]1[C@@H]2CC[C@]2(C)[C@@H](NCCCCCCN3C(=O)C=CC3=O)CC[C@@H]12 [U73122]
effect of pretreatment on the effect of DHPG on Cdk5 kinase activity [1]: abolished | effect of pre-incubation on the ability of DHPG to increase CK1ε activity [2]: abolished | effect on basal phosphorylation of Thr75 [3]: did not change | effect of pretreatment on the DHPG effect on Thr75 phosphorylation [3]: abolished | effect on basal phosphorylation of Ser137 [4]: did not change | effect of pretreatment on the DHPG effect on Ser137 phosphorylation [4]: abolished

C[C@H](CCC(=O)O)C[C@H](C)C[C@H](C)C(=O)/C=C(\O)[C@H](C)C[C@H](C)C/C=C/[C@@H](C)[C@@H](O)[C@@H](C)[C@@H](O)C[C@@H]1CC[C@@](C)([C@H]2CC[C@@](C)([C@@H](C)O)O2)O1 [ionomycin]
increase in Cdk5 kinase activity ([1]; ionomycin 2 μM for 2 min): 2 fold | effect on phosphorylation of Thr75 in DARPP-32 [3, 7]: increased phosphorylation | effect on phosphorylation of Ser137 in DARPP-32 [4, 7]: increased phosphorylation

4-OH-tamoxifen
IC50 [5]: 26 nM

17β-estradiol
IC50 [5]: 5.6 nM

N[C@@H](CP(=O)(O)O)C(=O)O [L-AP3]
effect of pre-incubation on the ability of DHPG to increase CK1ε activity [2]: blocked | effect of pretreatment on the DHPG effect on Thr75 phosphorylation [3]: blocked | effect of pretreatment on the DHPG effect on Ser137 phosphorylation [4]: blocked

CC(=O)OCOC(=O)CN(CC(=O)OCOC(C)=O)c1ccccc1OCCOc1ccccc1N(CC(=O)OCOC(C)=O)CC(=O)OCOC(C)=O [BAPTA/AM]
effect of pretreatment on the effect of DHPG on Cdk5 kinase activity [1]: abolished | effect of pre-incubation on the ability of DHPG to increase CK1ε activity [2]: abolished | effect on basal phosphorylation of Thr75 [3]: did not change | effect of pretreatment on the DHPG effect on Thr75 phosphorylation [3]: abolished | effect on basal phosphorylation of Ser137 [4]: did not change | effect of pretreatment on the DHPG effect on Ser137 phosphorylation [4]: abolished

Nc1nc(NCCc2ccc(O)cc2)nc2nc(-c3ccco3)nn12 [ZM241385]
effect of pretreatment on the DHPG effect on Thr75 phosphorylation [3]: did not affect | effect of pretreatment on the DHPG effect on Ser137 phosphorylation [4]: did not affect

O=C1CCCO1 [butyrolactone]
effect on basal Ca2+ currents [6]: significant reduction; also recorded: reduced | effect on the enhancement of Ca2+ currents by DHPG ([6]; DHPG 100 μM): eliminated | effect on basal or DHPG-stimulated DARPP-32 phosphorylation at Thr75 [3, 8]: little effect | effect on basal and DHPG-stimulated phosphorylation of Thr75 [3, 9]: decreased in a dose-dependent manner | effect on basal or DHPG-stimulated DARPP-32 phosphorylation at Ser137 [4, 8]: little effect | effect on basal and DHPG-stimulated phosphorylation of Ser137 [4, 9]: unaffected
